Consider 2 molecules from paper PMC5328764 (Physiological Reports, 2017).

Data set [1] relates to healthy volunteers. As to the kind of experiment: Serum insulin and C‐peptide after s.c. injection (ECLIA). Conditions: fasting healthy volunteers n = 8; for Effect on insulin and C‐peptide (in words): s.c. 1.5 nmol/kg, 0–120 min. The data set is classed as in vivo, human. On the procedure:
Plasma insulin and C‐peptide levels were measured on a Cobas® 8000, e602 module (Roche Diagnostics GmbH, Mannheim) using, respectively, Cobas Insulin reagents and Cobas Insulin Calibrator, and Cobas C‐Peptide reagents and Cobas C‐Peptide Calibrator. The Cobas module employs a sandwich electro‐chemiluminescense immunoassay (ECLIA).
(§1) Intravenous access was then established. […] Baseline measurements were made twice during the resting period.
Analyses of normally distributed data were conducted by two‐way ANOVA followed by Tukey post hoc testing if the ANOVA indicated significant differences between the study days.

Data set [2] deals with healthy volunteers. As to the kind of experiment: Plasma glucose after s.c. injection (glucose oxidase method). It counts as in vivo, human. On the procedure:
Plasma glucose was measured by the glucose oxidase method using a glucose analyzer (Yellow Springs Instrument, YSI Inc., Yellow Springs, OH).
as §1

The test system of data set [3] is healthy volunteers. The data set can be described thus: Plasma pancreatic polypeptide (PP) after s.c. injection (radioimmunoassay). It counts as in vivo, human. Conditions: fasting healthy volunteers; s.c. GLP‐1 1.5 nmol/kg; due to excursions in a subset of participants.
Source text: as §1

Data set [4] concerns healthy volunteers. The data set can be described thus: Doppler ultrasound blood flow in superior mesenteric artery, celiac trunk and renal artery (RI, TAMV). Conditions: healthy volunteers n = 8, s.c. GLP‐1 and GLP‐1 9–36amide 1.5 nmol/kg, exenatide 10 μg, 0–120 min. It counts as in vivo, human.
Source text: as §1

Data set [5] has as its system healthy volunteers. As to the kind of experiment: Cardiovascular measurements by task force monitor (heart rate, blood pressure, cardiac output, stroke volume). It counts as in vivo, human. Conditions: for Effect on heart rate (in words): s.c. GLP‐1 and GLP‐1 9–36amide 1.5 nmol/kg, exenatide 10 μg, 0–120 min, two‐way ANOVA, Tukey post hoc. As for the experimental part:
Cardiac parameters were continuously measured from time −15 to 120 min. The task force monitor (TFM; CN Systems, Graz, Austria) continuously measures the heart rate, blood pressure (by finger plethysmography), cardiac output (by impedance cardiography), and calculates stroke volume (SV). The continuous, beat‐to‐beat measuring of blood pressure was supplemented with the conventional noninvasive oscillometric blood pressure measurement. […] This was done to eliminate brief or short‐lasting changes in cardiac parameters due to accidental movement of the volunteer or slight disturbance during scanning.
as §1

Data set [6] can be described thus: Plasma concentrations of the test substances by radioimmunoassay after s.c. injection. Conditions: eight healthy volunteers.
Setting [7] is: healthy volunteers n = 8, supine.

For `CC[C@H](C)[C@H](NC(=O)[C@H](Cc1ccccc1)NC(=O)[C@H](CCC(=O)O)NC(=O)[C@H](CCCCN)NC(=O)[C@H](C)NC(=O)[C@H](C)NC(=O)[C@H](CCC(N)=O)NC(=O)CNC(=O)[C@H](CCC(=O)O)NC(=O)[C@H](CC(C)C)NC(=O)[C@H](Cc1ccc(O)cc1)NC(=O)[C@H](CO)NC(=O)[C@H](CO)NC(=O)[C@@H](NC(=O)[C@H](CC(=O)O)NC(=O)[C@H](CO)NC(=O)[C@@H](NC(=O)[C@H](Cc1ccccc1)NC(=O)[C@@H](NC(=O)CNC(=O)[C@H](CCC(=O)O)NC(=O)[C@H](C)NC(=O)[C@@H](N)Cc1c[nH]cn1)[C@@H](C)O)[C@@H](C)O)C(C)C)C(=O)N[C@@H](C)C(=O)N[C@@H](Cc1c[nH]c2ccccc12)C(=O)N[C@@H](CC(C)C)C(=O)N[C@H](C(=O)N[C@@H](CCCCN)C(=O)NCC(=O)N[C@@H](CCCNC(=N)N)C(N)=O)C(C)C` [GLP‐1, glucagon‐like peptide‐1], the “Effect on insulin and C‐peptide (in words)” value with healthy volunteers [1] is reported as “caused a rise in insulin”. Further, the “Time until which C‐peptide levels remained elevated” value with healthy volunteers [1] (s.c. GLP‐1 1.5 nmol/kg) came out at 60 min. In the data set with healthy volunteers [1] (s.c. GLP‐1 1.5 nmol/kg, exenatide 10 μg (for exenatide insulin and C‐peptide)), the “Time of insulin peak” value is 15 min. The same molecule came in with a Plasma glucose nadir in the data set with healthy volunteers [2] (fasting healthy volunteers n = 8, s.c. 1.5 nmol/kg, from around 5 mmol/L, nadir at 30 min, mean) of 3.5 mmol/L. Further, the “Time of plasma glucose nadir” value in the data set on healthy volunteers [2] (fasting healthy volunteers n = 8, s.c. GLP‐1 1.5 nmol/kg, exenatide 10 μg) is on record as 30 min. The “Effect on plasma pancreatic polypeptide (PP) (in words)” value in the data set with healthy volunteers [3] is reported as “mean PP levels rose late”. For the same molecule, the “Changes in blood flow parameters in the mesenteric or renal arteries” value with healthy volunteers [4] was “Neither GLP‐1, GLP‐1_9–36 amide, exenatide nor saline elicited any changes in blood flow parameters”. Moreover, the “Time of peak heart rate increase” value in the data set on healthy volunteers [5] (healthy volunteers n = 8, supine, s.c. GLP‐1 1.5 nmol/kg) was determined as 30 min. Further, the “Maximum increase in heart rate” value in the data set with healthy volunteers [5] (healthy volunteers n = 8, supine, s.c. GLP‐1 1.5 nmol/kg, peaking at 30 min) is “about 14 beats per min”. The “Effect on heart rate (in words)” value in the data set with healthy volunteers [5] (setting [7]) was “significantly increased heart rate”. In addition, the “Effect on cardiac output (in words)” value with healthy volunteers [5] (healthy volunteers n = 8, impedance cardiography, 120 min period, on the placebo day decrease by about 1 L/min) was “tended to rise”. The “Effect on stroke volume (in words)” value with healthy volunteers [5] (healthy volunteers n = 8, s.c. GLP‐1 1.5 nmol/kg, lower values at 15 and 30 min) is given as “appeared to fall more”. Also, the “Time at which intact GLP‐1 reached basal levels” value in data set [6] (1.5 nmol/kg GLP‐1 s.c.) was “around 90 min”. Moreover, the “Total plasma GLP‐1 concentration, peak mean value on the GLP‐1 day” value in data set [6] (1.5 nmol/kg GLP‐1 s.c., total = GLP‐1 7–36amide + 9–36amide, reached within 15 min, still elevated at 120 min, radioimmunoassay, mean) was “around 300 pmol/L”. Besides, in data set [6] (s.c., exenatide 10 μg, GLP‐1 and GLP‐1 9–36amide 1.5 nmol/kg), the “Time of peak or plateau plasma concentration of the injected peptide (exendin‐4 or total GLP‐1 assay)” value is on record as not above 15 min.

Take GLP‐1_9–36amide: the “Effect on insulin and C‐peptide (in words)” value with healthy volunteers [1] is “no significant changes”. Besides, the “Effect on plasma glucose (in words)” value in the data set with healthy volunteers [2] (fasting healthy volunteers n = 8, s.c. exenatide 10 μg, GLP‐1 9–36amide 1.5 nmol/kg, 0–120 min) is reported as “Neither saline nor the metabolite, GLP‐1_9–36amide influenced plasma glucose levels”. Further, the “Changes in blood flow parameters in the mesenteric or renal arteries” value in the data set with healthy volunteers [4] is recorded as “Neither GLP‐1, GLP‐1_9–36 amide, exenatide nor saline elicited any changes in blood flow parameters”. Also, in the data set with healthy volunteers [5] (setting [7]), the “Effect on heart rate (in words)” value was “remained stable”. The “Time at which GLP‐1 9–36amide concentrations reached near basal levels” value in data set [6] (1.5 nmol/kg GLP‐1 9–36amide s.c.) came to 120 min. For the same molecule, the “Plasma concentration of the metabolite GLP‐1 9–36amide (total GLP‐1 assay), peak” value in data set [6] (1.5 nmol/kg GLP‐1 9–36amide s.c., at 30 min, radioimmunoassay, mean) is recorded as “about 290 pmol/L”.
